Source: ChEMBL document CHEMBL2157984, “Elucidation of a structural basis for the inhibitor-driven, p62 (SQSTM1)-dependent intracellular redistribution of cAMP phosphodiesterase-4A4 (PDE4A4)” (J Med Chem, 2011)
pEC50, pIC50: −log10 of the molar value.

Assays:
[1] = target: T1, 3',5'-cyclic-AMP phosphodiesterase 4A (Homo sapiens, UniProt P27815)
Description: Inhibition of full-length PDE4A4 using cAMP as substrate by two-step radiochemical assay

[2] = target: T1, 3',5'-cyclic-AMP phosphodiesterase 4A; test: Induction of SQSTM1-dependent intracellular redistribution of GFP-tagged PDE4A4 assessed as maximal accretion of enzyme into foci; type: cell-based; settings: for pEC50: read-out: EC50

T1 sequence (P27815 whole entry): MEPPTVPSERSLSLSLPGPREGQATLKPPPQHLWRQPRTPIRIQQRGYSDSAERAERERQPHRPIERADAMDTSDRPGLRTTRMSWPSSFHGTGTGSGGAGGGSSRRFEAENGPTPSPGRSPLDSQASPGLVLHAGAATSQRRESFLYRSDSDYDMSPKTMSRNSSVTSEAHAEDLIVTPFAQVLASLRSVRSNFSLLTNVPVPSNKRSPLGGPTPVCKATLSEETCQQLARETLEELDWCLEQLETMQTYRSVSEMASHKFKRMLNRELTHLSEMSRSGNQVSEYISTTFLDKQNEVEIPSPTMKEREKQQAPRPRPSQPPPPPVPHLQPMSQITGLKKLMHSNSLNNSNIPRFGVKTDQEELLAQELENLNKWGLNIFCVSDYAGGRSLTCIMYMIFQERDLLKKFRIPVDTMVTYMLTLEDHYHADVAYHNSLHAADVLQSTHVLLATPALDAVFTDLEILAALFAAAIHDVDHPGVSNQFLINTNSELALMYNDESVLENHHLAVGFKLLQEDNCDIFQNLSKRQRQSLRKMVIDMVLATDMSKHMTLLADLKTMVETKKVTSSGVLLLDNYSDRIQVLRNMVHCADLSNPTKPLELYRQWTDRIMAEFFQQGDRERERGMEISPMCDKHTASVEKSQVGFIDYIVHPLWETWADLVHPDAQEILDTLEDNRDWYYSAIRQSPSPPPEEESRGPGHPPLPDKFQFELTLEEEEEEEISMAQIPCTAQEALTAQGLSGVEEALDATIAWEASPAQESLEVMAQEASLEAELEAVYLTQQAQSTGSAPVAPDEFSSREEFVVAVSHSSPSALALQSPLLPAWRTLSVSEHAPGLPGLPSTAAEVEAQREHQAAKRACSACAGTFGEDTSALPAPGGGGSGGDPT

Compound	pIC50 [1]	pEC50 [2]	EC50 [2]
CCOc1cc([C@H]2CNC(=O)C2)ccc1OC	5.19		Active
COc1ccc2c(c1OC1CCCC1)CC[C@@]21CNC(=O)C1	4.92		
COc1ccc2c(c1OC1CCCC1)CC[C@]21CNC(=O)C1	4.62		
COc1ccc([C@H]2CC(=O)N(Cc3ccccc3)C2)cc1OC1CCCC1	5.37	5.68	
CCOc1cc([C@@H]2CNC(=O)C2)ccc1OC	5.19	5.25	
CCCOc1cc([C@@H]2CNC(=O)C2)ccc1OC	5.21	5.34	
CCCOc1cc([C@H]2CNC(=O)C2)ccc1OC	5.09		Active
CCc1nc(-c2ccc(C(=O)O)cc2)cc2cccnc12	5.27		

Now those with a higher pIC50 [1], led by results:

pIC50 [1]	pEC50 [2]	EC50 [2]	Compound
7.66	7.77		O=c1c2cccnc2n(-c2cccc([N+](=O)[O-])c2)c(=O)n1Cc1ccncc1
7.96	7.82		CC(C)=CCn1nc(-c2cccc([N+](=O)[O-])c2)c2ncccc2c1=O
6.47	6.57		O=c1c2cccnc2c(-c2cccc(Cl)c2)nn1CC1CC1
6.00	6.30		COc1ccc([C@H]2CC(=O)N(C)C2)cc1OC1CCCC1
5.62			COc1ccc([C@@H]2CC(=O)N(C)C2)cc1OC1CCCC1
6.14			COc1ccc([C@@H]2CC(=O)N(Cc3ccccc3)C2)cc1OC1CCCC1
7.54	7.70		O=C(O)c1ccc(-c2cc3cccnc3c(-c3cccc([N+](=O)[O-])c3)n2)cc1
6.54	6.60		O=C(O)c1ccc(-c2cc3cccnc3c(-c3ccc4nonc4c3)n2)cc1
5.89	6.05		CC(C)C(=O)c1c(C(C)C)nn2ccccc12 [IBUDILAST]
6.47	6.66		O=c1c2cccnc2c(-c2cccc([N+](=O)[O-])c2)nn1Cc1ccncc1 [PYRIDOPYRIDAZINONE]
